Here are results for five compounds from ChEMBL document CHEMBL1126831, “A structure-activity study of four dopamine D-1 and D-2 receptor antagonists, representing the phenylindan, -indene, and -indole structural classes of compounds” (J Med Chem, 1993).

One test addresses D(1A) dopamine receptor (Rattus norvegicus, UniProt P18901). Briefly: Binding affinity towards dopamine receptor D1 by displacement of [3H]-SCH- radioligand in rat striatal membranes. Format: cell membranes, Membrane. On the technique in general: Loss of bound radioactivity is the signal in a displacement assay; it reports binding, not function.
For the next test, the target named is D(2) dopamine receptor (Rattus norvegicus, UniProt P61169). The test is described as follows: Binding affinity towardst dopamine D2 receptor by displacement of [3H]-SPI radioligand in rat striatal membranes. Format: cell membranes, Membrane.
D(2) dopamine receptor, sequence (P61169 whole entry): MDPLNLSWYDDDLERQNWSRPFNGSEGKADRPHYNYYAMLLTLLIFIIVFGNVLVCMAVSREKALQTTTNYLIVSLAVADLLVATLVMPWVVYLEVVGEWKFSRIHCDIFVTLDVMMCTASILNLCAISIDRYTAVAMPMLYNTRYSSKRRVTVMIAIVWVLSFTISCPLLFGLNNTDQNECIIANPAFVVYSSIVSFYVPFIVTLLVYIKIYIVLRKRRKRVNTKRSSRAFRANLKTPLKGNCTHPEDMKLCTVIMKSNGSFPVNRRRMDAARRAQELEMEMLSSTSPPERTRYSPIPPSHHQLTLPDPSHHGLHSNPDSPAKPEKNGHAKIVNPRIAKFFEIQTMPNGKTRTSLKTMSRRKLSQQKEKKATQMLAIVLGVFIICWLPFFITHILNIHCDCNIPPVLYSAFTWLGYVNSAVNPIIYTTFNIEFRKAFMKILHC

D(1A) dopamine receptor, sequence (P18901 whole entry): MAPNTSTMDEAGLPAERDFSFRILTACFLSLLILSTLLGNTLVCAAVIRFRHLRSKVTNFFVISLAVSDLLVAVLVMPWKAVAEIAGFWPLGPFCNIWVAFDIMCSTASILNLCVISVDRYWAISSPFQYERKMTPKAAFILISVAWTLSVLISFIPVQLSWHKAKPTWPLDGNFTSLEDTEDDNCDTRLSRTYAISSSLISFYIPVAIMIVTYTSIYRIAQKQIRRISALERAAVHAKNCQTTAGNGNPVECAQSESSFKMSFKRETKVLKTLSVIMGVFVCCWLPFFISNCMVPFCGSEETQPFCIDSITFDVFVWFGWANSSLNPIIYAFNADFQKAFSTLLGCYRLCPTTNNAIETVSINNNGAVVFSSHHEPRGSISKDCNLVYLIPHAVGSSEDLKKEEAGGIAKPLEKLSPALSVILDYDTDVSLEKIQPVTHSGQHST

Consider `CN1CC=C(C2=CC(c3ccc(F)cc3)c3ccc(Cl)cc32)CC1` (stereo not drawn), for which the IC50 (as a rule, the concentration that gives 50% inhibition) turned out to be 23 nM on D(1A) dopamine receptor and 5.1 nM at D(2) dopamine receptor.
Take `OCCN1CCN([C@@H]2C[C@@H](c3ccc(F)cc3)c3ccc(C(F)(F)F)cc32)CC1` [TEFLUDAZINE]: at D(1A) dopamine receptor, the IC50 turned out to be 19 nM.
For `CN1CCC(C2=CC(c3ccc(F)cc3)c3ccc(Cl)cc32)CC1` (stereo not drawn), the IC50 is 12 nM on D(1A) dopamine receptor and 19 nM at D(2) dopamine receptor.
In the case of `CN1CC=C(c2cn(-c3ccc(F)cc3)c3ccc(Cl)cc23)CC1`, the IC50 on D(1A) dopamine receptor turned out to be 9.8 nM.
With `CN1CCN(C2CC(c3ccc(F)cc3)c3ccc(Cl)cc32)CC1` (stereo not drawn), the IC50 worked out at 9.5 nM at D(1A) dopamine receptor and 12 nM on D(2) dopamine receptor.
